In US10265257B2, “Personal care composition” (Innospec Limited, priority 2007, dated 2019):
Read-outs that look alike come from different tables or passages of the source. Values belong to the substance of their own block, whether it stands above or below them.

How the values were obtained:
Zein protein [1] = details: stated as known for comparison compounds; cited from earlier work
[2] = Stability of SCMI in aqueous solution (amount of SCMI present over time); format: physicochemical; details: 10 wt % aqueous solutions, initial pH 4.5, 5.5, 6.5, 7.5, 8.5 and 9.5, held at 48.9° C., 30 days
Method: In a preliminary test the stability of SCMI in 10 wt % aqueous solutions adjusted to have initial pH values respectively of 4.5, 5.5, 6.5, 7.5, 8.5 and 9.5, each held at 48.9° C. for an extended period of days, were tested for the amount of SCMI present over the test period.
(§1) The pH values were read using a standard electrode pH meter (Fisher Accument XL-25). The electrode was place in the composition (no further dilution) and the pH recorded.

[3] = pH stability of SCMI solutions over time; format: physicochemical
Method: as §1
In a preliminary test 10 wt % solutions of SCMI, adjusted to have initial pH values respectively of 4.5, 5.5, 6.5, 7.5, 8.5 and 9.5, each held at 48.9° C. for an extended period of days, were tested for their pH stability over the extended period. The pH testing was as described above.

[4] = Simple solubility tests in deionised water; format: physicochemical
Zein protein [5] = assay: Zein protocol in-vitro skin irritancy test; details: FIG. 3, surfactant solution 2 wt %, 1 hour at 35° C.
Text: (§2) The Zein protocol is an in-vitro test to measure skin irritancy of formulations. The method makes use of the correlation between binding ability of surfactants to proteins and the damage the surfactant causes to the skin. […] Zein protein, an insoluble protein extracted from corn kernel, is used as a model for epidermal protein and the solubility of the Zein protein in surfactant solutions is believed to be a reliable guide for the skin irritancy caused by the surfactant. The test involves establishing the amount of Zein protein which can be solubilised by surfactant. 5 g of Zein protein may be dispersed in 40 cm^3 of surfactant solution (at 2 wt % concentration). The mixture is shaken for 1 hour at 35° C., and immediately centrifuged to remove any non-solubilised Zein. The amount solubilised is estimated from the solution nitrogen content using micro-Kjeldahl method (making allowance for any nitrogen in the compound tested).

Zein protein [6] = test system: Zein protein
Text: as §2

Substance: sodium laureth sulfate [SLES]
skin irritancy, known (Zein protein [1]): significant irritancy

percentage of SCMI present, Day 0 to Day 30 [2]: does not change
pH change of sample held at highest pH value ([3]; 10 wt % solution, initial pH 9.5, 48.9° C., first few days): small pH reduction
pH values from Day 0 to Day 30 ([3]; 10 wt % solutions, initial pH 4.5 to 9.5, held at 48.9° C., 30 days): substantially unchanged
appearance of 10 wt % in deionised water (solubility test) [4]: clear solution
Substance: sodium cocoylmethylisethionate [SCMI]
skin irritancy (Zein protocol) (Zein protein [5]): low irritancy

Substance: sodium cocoyl isethionate [SCI]
skin irritancy, known (Zein protein [1]): low irritancy

Substance: sodium lauroylmethylisethionate [SLMI]
skin irritancy (Zein protocol) (Zein protein [6]): low irritancy
